Assay results reported in patent US20240317736A1, “DEUTERATED DERIVATIVE AS ATX INHIBITOR, AND APPLICATION THEREOF” (Xizang Haisco Pharmaceutical Co., Ltd., priority 2020, published 2024).
Where two headings read alike, the source gives them in different places.

Legend:
[1] = target: T1, autocrine motility factor (Homo sapiens, UniProt Q13822); assay: Inhibition of LPA formation in mixed ex vivo human plasma; assay type: biochemical; conditions: 37° C., 2 h
T1 construct: Whole blood was anticoagulated with heparin and centrifuged, and then plasma was collected; from tissue; host or cells: pooled human plasma (heparin-anticoagulated whole blood)
Procedure: Autocrine motility factor is a phosphodiesterase in plasma that converts lysophosphatidylcholine (LPC) to lysophosphatidic acid (LPA). Therefore, the formation of LPA can be used to evaluate the potency of an autocrine motility factor inhibitor. The potency of the compound in mixed ex vivo human plasma was evaluated.
Whole blood was anticoagulated with heparin and centrifuged, and then plasma was collected. 5 μL of gradient-diluted test compounds or DMSO was added to 95 μL of plasma and incubated at 37° C. for 2 h. After that, a stop buffer (40 mM disodium hydrogen phosphate buffer, containing 30 mM of citric acid, pH=4) was added. LPA in plasma was detected by LC-MSMS before and after incubation. In order to determine the concentration of LPA 18:2 or LPA 20:4 in the plasma in study, calibration standard substances at 20000 ng/mL, 10000 ng/mL, 5000 ng/ml, 2000 ng/ml, 1000 ng/mL, 500 ng/mL, 200 ng/ml, 100 ng/mL, 50 ng/ml, 20 ng/mL and 10 ng/ml for LPA 18:2 or LPA 20:4 were prepared by performing serial dilution in butanol. 3 μL of calibration standard solution was added to 27.0 μL of blank plasmas in each 1.5 mL microcentrifuge tube to produce 1× calibration standard substances. 30.0 μL of standard substances or plasma in study was added to each 1.5 mL microcentrifuge tube. 200 μL of butanol (containing 25.0 ng/mL LPA 17:0 for internal control) was added to each 1.5 mL microcentrifuge tube containing the plasma in study or calibration standard substance. Vortex oscillation was performed for 1 min, and centrifugation was performed at 10000 rpm for 10 min. 180 μL of the supernatant was transferred to a 96-well plate, and LC/MS/MS was used together with the standard substance to quantify the concentration of LPA 18:2 in the plasma. In short, 8 μL of the solution was injected, and LC-MS/MS analysis using an ACQUITY UPLC BEH C18 column (2.1×50 mm, 1.7 μm) was performed, wherein mobile phase A [20 mM NH4OAC aqueous solution (0.1% FA)] and mobile phase B [5 mM NH4OAC aqueous solution/0.2% FA in ACN=5:95] were used. The parameters of a mass spectrometer for LPA 18:2 were optimized by means of deprotonation of molecular ions. For LPA 18:2 at m/z 433.2([M−H]−), LPA 20:4 at 457.2, and LPA 18:2 and LPA 20:4 both at m/z 152.8, abundant product ions were obtained. Quantitative data were obtained in a multiple reaction monitoring (MRM) negative electrospray ionization mode.
The inhibition rates of compounds at different concentrations on LPA formation were determined by comparing the changes of LPA levels in incubated and unincubated plasma. The IC50 of the compounds was calculated as a calculation inhibition rate, and the relative concentration at each well=the concentration at each well−the average concentration at baseline.
Inhibition rate %=(average relative concentration at control well−average relative concentration at test well)/average relative concentration at control well×100%. The curve was plotted with the inhibition rates as a y axis and the compound concentrations as an x axis, and fitting was performed by GraphPad Prism7.0 using log (inhibitor) and normalized response (variable slope).

[2] = Pharmacokinetic test in rats; assay type: in vivo; conditions: male, SD, rat, plasma; for Cmax: read-out: C0 or Cmax; for bioavailability: PO 5 mg/kg vs IV 1 mg/kg
Procedure: Test objective: test compounds were given to SD rats via single-dose intravenous and intragastric administration, the concentrations of the test compounds in plasma of rats were measured, and the pharmacokinetic characteristics and bioavailability of test compounds in rats were evaluated.
Test animals: male SD rats, about 220 g, 6-8 weeks old, six rats/compound, purchased from Chengdu Ddossy Experimental Animals Co., Ltd.
Test method: on the day of the test, 6 SD rats were randomly grouped according to their body weights. The rats were fasted with water available for 12-14 h one day before the administration, and were fed 4 h after the administration. The administration was performed according to Table 5.
Before and after the administration, 0.1 mL of blood was taken from the orbits of the rats under isoflurane anaesthesia, and placed in an EDTAK2 centrifuge tube. Centrifugation was performed at 5000 rpm at 4° C. for 10 min, and plasma was collected.
Time points for sample collection in group G1 comprise 0 min, 5 min, 15 min, 30 min, 1 h, 2 h, 4 h, 6 h, 8 h and 24 h.
Time points for sample collection in group G2 comprise 0 min, 15 min, 30 min, 1 h, 2 h, 4 h, 6 h, 8 h and 24 h.
30 μL of each of plasma samples, standard curve samples and quality control samples was taken, and 200 μL of acetonitrile solution containing an internal standard was added, and the resulting mixture was homogeneously mixed by vortex and centrifuged at 4° C. at 12000 rpm for 10 min. 170 μL of the supernatant was taken to a 96-well plate, and LC-MS/MS analysis was performed, wherein the sample size was 2 μL.
The main pharmacokinetic parameters were analyzed by a non-compartmental model using WinNonlin 8.0 software.

[3] = LPA 18:2 by LC-MS/MS, read-out: IC50 for inhibiting LPA formation (18:2)
[4] = LPA 20:4 by LC-MS/MS, read-out: IC50 for inhibiting LPA formation (20:4)

Compound `[2H]C([2H])([2H])C([2H])([2H])c1nn2cc(F)c(N3CCN(CC(=O)N4CC(O)C4)CC3)cc2c1N(C)c1nc(-c2ccc(F)cc2)c(C#N)s1` [Compound 1, 2-((2-(ethyl-d5)-6-fluoro-5-(4-(2-(3-hydroxyazetidin-1-yl)-2-oxoethyl)piperazin-1-yl)pyrazolo[1,5-a]pyridin-3-yl)(methyl)amino)-4-(4-fluorophenyl)thiazole-5-carbonitrile] has an IC50 [1, 3] of 46 nM, an IC50 [1, 4] of 48.5 nM and an AUC ([2]; IV 1 mg/kg) of 1060 ± 124 ng·h/mL. It also gave a half-life ([2]; IV 1 mg/kg) of 2.6 ± 0.61 h, a Cmax ([2]; IV 1 mg/kg) of 967 ± 106 ng/mL and an AUC ([2]; PO 5 mg/kg) of 1170 ± 46 ng·h/mL. The Tmax ([2]; PO 5 mg/kg) was 4 ± 2 h, the half-life ([2]; PO 5 mg/kg) was 6.4 ± 2.4 h and the bioavailability [2] was 22.1 ± 0.87%. The Cmax ([2]; PO 5 mg/kg) was 181 ± 10 ng/mL.
In the case of `[2H]C([2H])([2H])N(c1nc(-c2ccc(F)cc2)c(C#N)s1)c1c(C([2H])([2H])C([2H])([2H])[2H])nn2cc(F)c(N3CCN(CC(=O)N4CC(O)C4)CC3)cc12` [Compound 2, 2-((2-(ethyl-d5)-6-fluoro-5-(4-(2-(3-hydroxyazetidin-1-yl)-2-oxoethyl)piperazin-1-yl)pyrazolo[1,5-a]pyridin-3-yl)(methyl-d3)amino)-4-(4-fluorophenyl)thiazole-5-carbonitrile], the IC50 [1, 3] is reported as 52 nM, the IC50 [1, 4] is reported as 55.3 nM and the AUC ([2]; IV 1 mg/kg) is reported as 1330 ± 83 ng·h/mL. The half-life ([2]; IV 1 mg/kg) was 2.4 ± 0.35 h, the Cmax ([2]; IV 1 mg/kg) was 1030 ± 62 ng/mL and the AUC ([2]; PO 5 mg/kg) was 2570 ± 449 ng·h/mL. For the same compound, the Tmax ([2]; PO 5 mg/kg) was 4.33 ± 2.9 h, the half-life ([2]; PO 5 mg/kg) was 2.87 ± 0.15 h and the bioavailability [2] was 38.6 ± 6.7%. It also gave a Cmax ([2]; PO 5 mg/kg) of 297 ± 105 ng/mL.
For `[2H]C1([2H])N(CC(=O)N2CC(O)C2)C([2H])([2H])C([2H])([2H])N(c2cc3c(N(C)c4nc(-c5ccc(F)cc5)c(C#N)s4)c(CC)nn3cc2F)C1([2H])[2H]` [Compound 4, 2-((2-ethyl-6-fluoro-5-(4-(2-(3-hydroxyazetidin-1-yl)-2-oxoethyl)piperazin-1-yl-2,2,3,3,5,5,6,6-d8)pyrazolo[1,5-a]pyridin-3-yl)(methyl)amino)-4-(4-fluorophenyl)thiazole-5-carbonitrile], the IC50 [1, 3] was 51.8 nM and the IC50 [1, 4] was 54.8 nM.
`[2H]c1c([2H])c(-c2nc(N(C)c3c(CC)nn4cc(F)c(N5CCN(CC(=O)N6CC(O)C6)CC5)cc34)sc2C#N)c([2H])c([2H])c1F` [Compound 9, 2-((2-ethyl-6-fluoro-5-(4-(2-(3-hydroxyazetidin-1-yl)-2-oxoethyl)piperazin-1-yl)pyrazolo[1,5-a]pyridin-3-yl)(methyl)amino)-4-(4-fluorophenyl-2,3,5,6-d4)thiazole-5-carbonitrile] gave an AUC ([2]; IV 1 mg/kg) of 943 ± 109 ng·h/mL, a half-life ([2]; IV 1 mg/kg) of 1.93 ± 0.072 h and a Cmax ([2]; IV 1 mg/kg) of 748 ± 187 ng/mL. It also gave an AUC ([2]; PO 5 mg/kg) of 2420 ± 860 ng·h/mL, a Tmax ([2]; PO 5 mg/kg) of 1.17 ± 0.76 h and a half-life ([2]; PO 5 mg/kg) of 2.43 ± 0.33 h. The bioavailability [2] was 51.3 ± 18% and the Cmax ([2]; PO 5 mg/kg) was 399 ± 137 ng/mL.
`[2H]c1c([2H])c(-c2nc(N(c3c(CC)nn4cc(F)c(N5CCN(CC(=O)N6CC(O)C6)CC5)cc34)C([2H])([2H])[2H])sc2C#N)c([2H])c([2H])c1F` [Compound 10, 2-((2-ethyl-6-fluoro-5-(4-(2-(3-hydroxyazetidin-1-yl)-2-oxoethyl)piperazin-1-yl)pyrazolo[1,5-a]pyridin-3-yl)(methyl-d3)amino)-4-(4-fluorophenyl-2,3,5,6-d4)thiazole-5-carbonitrile] showed an AUC ([2]; IV 1 mg/kg) of 1050 ± 84 ng·h/mL, a half-life ([2]; IV 1 mg/kg) of 2.05 ± 0.29 h and a Cmax ([2]; IV 1 mg/kg) of 813 ± 85 ng/mL. The AUC ([2]; PO 5 mg/kg) was 1960 ± 858 ng·h/mL, the Tmax ([2]; PO 5 mg/kg) was 2.83 ± 2 h and the half-life ([2]; PO 5 mg/kg) was 2.63 ± 0.071 h. The bioavailability [2] was 37.3 ± 6% and the Cmax ([2]; PO 5 mg/kg) was 234 ± 136 ng/mL.
